{"source": "ChEMBL document CHEMBL5465560", "about": "“Selectivity Literature for EUbOPEN Chemogenomic Library” (2024)", "key": {"[1]": {"target": "Serine/threonine-protein kinase MARK1 (Homo sapiens) (UniProt Q9P0L2)", "sequence (Q9P0L2 whole entry, looked up)": "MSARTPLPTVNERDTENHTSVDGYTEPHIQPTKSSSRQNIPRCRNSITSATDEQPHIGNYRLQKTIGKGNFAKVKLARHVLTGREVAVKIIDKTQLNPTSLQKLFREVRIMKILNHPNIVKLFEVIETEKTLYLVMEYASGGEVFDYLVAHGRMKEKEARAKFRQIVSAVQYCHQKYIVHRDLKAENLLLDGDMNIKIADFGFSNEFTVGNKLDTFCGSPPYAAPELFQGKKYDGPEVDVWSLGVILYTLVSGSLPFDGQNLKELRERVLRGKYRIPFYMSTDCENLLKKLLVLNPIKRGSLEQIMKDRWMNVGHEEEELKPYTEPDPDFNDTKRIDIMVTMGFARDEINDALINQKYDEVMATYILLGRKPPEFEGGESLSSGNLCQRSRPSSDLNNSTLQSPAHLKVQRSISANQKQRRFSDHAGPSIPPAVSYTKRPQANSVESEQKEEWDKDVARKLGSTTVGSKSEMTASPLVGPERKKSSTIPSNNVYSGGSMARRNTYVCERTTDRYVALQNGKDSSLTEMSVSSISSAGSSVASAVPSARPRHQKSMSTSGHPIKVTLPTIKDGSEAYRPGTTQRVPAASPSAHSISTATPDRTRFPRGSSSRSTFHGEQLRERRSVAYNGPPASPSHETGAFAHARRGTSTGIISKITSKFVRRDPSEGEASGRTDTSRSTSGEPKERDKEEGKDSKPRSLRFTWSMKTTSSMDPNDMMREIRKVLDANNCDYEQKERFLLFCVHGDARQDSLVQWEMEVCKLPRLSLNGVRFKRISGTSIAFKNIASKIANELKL", "details": "at 10 µM"}, "[2]": {"target": "T1, Serine/threonine-protein kinase TAO2 (Homo sapiens) (UniProt Q9UL54)", "T1 sequence (whole entry)": "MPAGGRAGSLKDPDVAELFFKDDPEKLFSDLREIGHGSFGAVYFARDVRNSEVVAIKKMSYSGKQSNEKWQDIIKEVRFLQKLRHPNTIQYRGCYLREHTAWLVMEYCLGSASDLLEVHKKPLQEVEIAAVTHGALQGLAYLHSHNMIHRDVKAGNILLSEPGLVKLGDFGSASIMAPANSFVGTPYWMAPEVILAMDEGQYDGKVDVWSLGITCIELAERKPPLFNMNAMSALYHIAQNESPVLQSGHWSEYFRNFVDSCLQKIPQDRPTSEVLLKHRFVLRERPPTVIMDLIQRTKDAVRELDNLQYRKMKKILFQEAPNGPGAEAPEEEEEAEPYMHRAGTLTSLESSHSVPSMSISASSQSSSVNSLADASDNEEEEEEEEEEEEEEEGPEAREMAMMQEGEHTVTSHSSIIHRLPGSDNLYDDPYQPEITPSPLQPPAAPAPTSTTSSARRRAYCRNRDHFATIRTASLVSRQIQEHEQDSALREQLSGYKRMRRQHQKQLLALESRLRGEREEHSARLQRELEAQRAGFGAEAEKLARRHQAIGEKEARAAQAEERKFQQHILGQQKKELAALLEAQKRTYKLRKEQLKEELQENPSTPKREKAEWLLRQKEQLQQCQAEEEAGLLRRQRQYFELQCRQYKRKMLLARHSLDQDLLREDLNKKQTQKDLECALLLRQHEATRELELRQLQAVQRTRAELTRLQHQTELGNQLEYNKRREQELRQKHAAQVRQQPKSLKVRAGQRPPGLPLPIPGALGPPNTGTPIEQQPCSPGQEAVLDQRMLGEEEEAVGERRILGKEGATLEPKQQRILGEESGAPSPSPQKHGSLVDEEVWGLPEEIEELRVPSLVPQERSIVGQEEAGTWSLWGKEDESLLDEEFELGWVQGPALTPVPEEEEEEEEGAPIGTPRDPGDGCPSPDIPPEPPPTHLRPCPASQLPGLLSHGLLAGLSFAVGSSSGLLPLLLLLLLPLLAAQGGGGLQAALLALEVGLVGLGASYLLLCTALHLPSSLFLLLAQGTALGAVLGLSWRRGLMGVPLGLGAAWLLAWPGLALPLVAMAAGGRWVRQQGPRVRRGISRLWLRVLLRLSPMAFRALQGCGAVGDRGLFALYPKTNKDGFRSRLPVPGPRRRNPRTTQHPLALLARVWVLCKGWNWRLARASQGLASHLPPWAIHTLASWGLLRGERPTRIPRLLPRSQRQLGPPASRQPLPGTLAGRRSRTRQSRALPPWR", "test": "Selectivity interaction (KinomeScan (DiscoverX)) EUB0000045b TAOK2"}, "[3]": {"target": "T2, Kinase suppressor of Ras 2 (Homo sapiens) (UniProt Q6VAB6)", "T2 sequence (whole entry)": "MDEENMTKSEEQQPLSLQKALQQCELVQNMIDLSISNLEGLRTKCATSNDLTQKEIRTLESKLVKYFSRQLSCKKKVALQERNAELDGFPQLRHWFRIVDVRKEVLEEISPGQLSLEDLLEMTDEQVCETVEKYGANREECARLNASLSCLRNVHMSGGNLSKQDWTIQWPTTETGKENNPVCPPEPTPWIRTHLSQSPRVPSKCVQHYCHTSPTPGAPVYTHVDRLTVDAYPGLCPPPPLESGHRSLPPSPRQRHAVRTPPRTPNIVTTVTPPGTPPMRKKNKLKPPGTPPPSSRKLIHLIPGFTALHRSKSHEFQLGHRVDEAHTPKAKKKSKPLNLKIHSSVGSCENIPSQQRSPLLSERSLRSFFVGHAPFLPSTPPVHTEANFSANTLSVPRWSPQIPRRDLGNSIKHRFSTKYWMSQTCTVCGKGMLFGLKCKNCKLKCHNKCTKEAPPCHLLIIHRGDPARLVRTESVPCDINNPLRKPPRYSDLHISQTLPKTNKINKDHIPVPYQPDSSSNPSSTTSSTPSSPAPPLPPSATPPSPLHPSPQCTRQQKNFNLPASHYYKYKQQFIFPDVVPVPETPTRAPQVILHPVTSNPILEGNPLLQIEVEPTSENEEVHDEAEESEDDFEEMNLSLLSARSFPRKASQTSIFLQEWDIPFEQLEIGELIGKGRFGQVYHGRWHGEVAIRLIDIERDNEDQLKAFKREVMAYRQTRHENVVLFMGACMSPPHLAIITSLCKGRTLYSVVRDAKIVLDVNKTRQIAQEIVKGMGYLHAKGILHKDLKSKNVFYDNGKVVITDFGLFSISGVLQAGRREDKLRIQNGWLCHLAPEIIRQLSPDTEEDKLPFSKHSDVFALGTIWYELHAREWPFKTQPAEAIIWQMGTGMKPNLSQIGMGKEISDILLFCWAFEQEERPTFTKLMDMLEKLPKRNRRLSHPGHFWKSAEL", "test": "Selectivity interaction (ActivX KiNativ screen (ex vivo kinase selectivity in human PBMCs)) EUB0001619a KSR2", "type": "cell-based", "details": "PBMC, at 1 µM"}, "[4]": {"target": "Cyclin-dependent kinase 18 (Homo sapiens) (UniProt Q07002)", "sequence (Q07002 whole entry)": "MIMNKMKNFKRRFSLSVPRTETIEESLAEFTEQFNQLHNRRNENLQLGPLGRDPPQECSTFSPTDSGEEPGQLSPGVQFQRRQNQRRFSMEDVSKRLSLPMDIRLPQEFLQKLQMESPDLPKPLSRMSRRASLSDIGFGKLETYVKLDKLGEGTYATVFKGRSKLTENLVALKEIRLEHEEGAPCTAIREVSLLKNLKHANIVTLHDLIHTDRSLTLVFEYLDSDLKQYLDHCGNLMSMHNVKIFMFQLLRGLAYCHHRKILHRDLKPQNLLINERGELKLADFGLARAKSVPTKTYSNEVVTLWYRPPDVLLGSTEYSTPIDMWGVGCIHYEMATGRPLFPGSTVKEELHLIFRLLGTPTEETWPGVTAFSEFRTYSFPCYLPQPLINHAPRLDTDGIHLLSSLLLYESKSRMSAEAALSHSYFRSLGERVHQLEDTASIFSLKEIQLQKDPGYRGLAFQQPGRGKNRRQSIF", "test": "Selectivity interaction (KinomeScan (DiscoverX)) EUB0000607a CDK18", "details": "at 10 µM"}, "[5]": {"target": "T3, Homeodomain-interacting protein kinase 4 (Homo sapiens) (UniProt Q8NE63)", "T3 sequence (whole entry)": "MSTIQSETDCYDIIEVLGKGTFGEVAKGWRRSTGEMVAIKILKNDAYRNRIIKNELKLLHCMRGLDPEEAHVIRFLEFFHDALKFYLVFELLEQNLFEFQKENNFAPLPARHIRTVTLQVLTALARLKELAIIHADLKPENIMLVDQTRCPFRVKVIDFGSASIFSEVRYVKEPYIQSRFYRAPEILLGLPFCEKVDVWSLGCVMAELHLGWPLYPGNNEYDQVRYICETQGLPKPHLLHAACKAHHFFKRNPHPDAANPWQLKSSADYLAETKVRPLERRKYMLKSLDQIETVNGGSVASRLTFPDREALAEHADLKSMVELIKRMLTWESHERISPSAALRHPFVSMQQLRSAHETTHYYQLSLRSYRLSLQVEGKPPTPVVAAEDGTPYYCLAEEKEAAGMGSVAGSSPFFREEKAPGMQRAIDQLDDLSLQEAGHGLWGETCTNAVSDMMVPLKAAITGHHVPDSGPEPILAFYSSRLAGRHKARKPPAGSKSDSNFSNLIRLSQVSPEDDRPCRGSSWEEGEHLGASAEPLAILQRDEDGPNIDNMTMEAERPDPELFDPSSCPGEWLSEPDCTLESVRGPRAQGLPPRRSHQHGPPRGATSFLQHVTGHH", "test": "Selectivity interaction (SelectScreen profiling (Invitrogen)) EUB0000607a HIPK4", "details": "at 2 µM"}, "[6]": {"target": "Tyrosine-protein kinase SYK (Homo sapiens, UniProt P43405)", "test": "Selectivity interaction (KinomeScan (DiscoverX)) EUB0000666a SYK", "details": "at 10 µM"}}, "data": [{"smiles": "COCC(=O)NC/C=C/c1ccc2ncnc(Nc3ccc(Oc4ccc(C)nc4)c(C)c3)c2c1", "note": "[CP-724714]", "values": [{"measurement": "% of control", "setting": "[1]", "result": 100, "unit": "%"}]}, {"smiles": "C=CC(=O)Nc1cc(-n2c(=O)ccc3cnc4ccc(-c5ccc(NS(C)(=O)=O)cc5)cc4c32)ccc1C", "values": [{"measurement": "% of control", "setting": "[2]; at 1 µM", "result": 80, "unit": "%"}, {"measurement": "% of control", "setting": "[2]; at 10 µM", "result": 100, "unit": "%"}]}, {"smiles": "N#Cc1cccc(-c2c[nH]c3ncnc(N4CCOCC4)c23)c1", "values": [{"measurement": "% of inhibition", "setting": "[3]", "result": 12, "unit": "%"}]}, {"smiles": "CNC(=O)Nc1ccc(-c2nc(N3CC4CCC(C3)O4)c3cnn(C4CCC5(CC4)OCCO5)c3n2)cc1", "values": [{"measurement": "% of control", "setting": "[4]", "result": 92, "unit": "%"}, {"measurement": "% of inhibition", "setting": "[5]", "result": 7, "unit": "%"}]}, {"smiles": "O=C(NOC[C@H](O)CO)c1ccc(F)c(F)c1Nc1ccc(I)cc1F", "values": [{"measurement": "% of control", "setting": "[6]", "result": 100, "unit": "%"}]}]}
